Laboratory results from ChEMBL document CHEMBL1221283, “Antimicrobial phenolic abietane diterpene from Lycopus europaeus L. (Lamiaceae)” (2010).
≈ marks a conversion by molar mass, not a printed value.

What was measured:
Assay type in all cases: functional
Acremonium chrysogenum = experiment: Antifungal activity against Acremonium chrysogenum isolates after 48 hrs by broth microdilution method; conditions: Hapsidospora chrysogena
Aspergillus restrictus = experiment: Antifungal activity against Aspergillus restrictus isolates after 48 hrs by broth microdilution method
Saccharomyces cerevisiae = experiment: Antifungal activity against Saccharomyces cerevisiae ATCC 9763 after 48 hrs by broth microdilution method
Penicillium chrysogenum = experiment: Antifungal activity against Penicillium chrysogenum isolates after 48 hrs by broth microdilution method
Aspergillus fumigatus = experiment: Antifungal activity against Aspergillus fumigatus isolates after 48 hrs by broth microdilution method
Candida albicans = experiment: Antifungal activity against Candida albicans ATCC 10231 after 48 hrs by broth microdilution method
Klebsiella pneumoniae [1] = experiment: Antibacterial activity against Klebsiella pneumoniae clinical isolate after 24 hrs by broth microdilution method
Bacillus cereus = experiment: Antibacterial activity against Bacillus cereus food isolate after 24 hrs by broth microdilution method
Escherichia coli [2] = experiment: Antibacterial activity against Escherichia coli ATCC 25922 after 24 hrs by broth microdilution method; conditions: ATCC 25922, 24 h
Pseudomonas aeruginosa = experiment: Antibacterial activity against Pseudomonas aeruginosa ATCC 9027 after 24 hrs by broth microdilution method; conditions: ATCC 9027, 24 h
Staphylococcus aureus [3] = experiment: Antibacterial activity against Staphylococcus aureus food isolate after 24 hrs by broth microdilution method
Salmonella enterica = experiment: Antibacterial activity against Salmonella enterica ATCC 13076 after 24 hrs by broth microdilution method; conditions: ATCC 13076, 24 h
Proteus vulgaris = experiment: Antibacterial activity against Proteus vulgaris ATCC 8427 after 24 hrs by broth microdilution method; conditions: ATCC 8427, 24 h
Staphylococcus aureus [4] = experiment: Antibacterial activity against Staphylococcus aureus ATCC 6538 after 24 hrs by broth microdilution method; conditions: ATCC 6538, 24 h
Klebsiella pneumoniae [5] = experiment: Antibacterial activity against Klebsiella pneumoniae ATCC 10031 after 24 hrs by broth microdilution method; conditions: ATCC 10031, 24 h
Escherichia coli [6] = experiment: Antibacterial activity against Escherichia coli clinical isolate after 24 hrs by broth microdilution method
Staphylococcus aureus [7] = experiment: Antibacterial activity against Staphylococcus aureus ATCC 25923 after 24 hrs by broth microdilution method; conditions: ATCC 25923, 24 h
Trueperella pyogenes = experiment: Antibacterial activity against Corynebacterium pyogenes ATCC 19411 after 24 hrs by broth microdilution method; conditions: ATCC 19411, 24 h
Escherichia coli [8] = experiment: Antibacterial activity against Escherichia coli food isolate after 24 hrs by broth microdilution method
Bacillus subtilis = experiment: Antibacterial activity against Bacillus subtilis ATCC 6633 after 24 hrs by broth microdilution method; conditions: ATCC 6633, 24 h
Micrococcus luteus = experiment: Antibacterial activity against Sarcina lutea food isolate after 24 hrs by broth microdilution method

Molecule: NYSTATIN
- MIC (Acremonium chrysogenum): 0.195 µg/mL
- MIC (Aspergillus restrictus): 0.781 µg/mL
- MIC (Saccharomyces cerevisiae): 12.5 µg/mL
- MIC (Penicillium chrysogenum): 0.39 µg/mL
- MIC (Aspergillus fumigatus): 0.195 µg/mL
- MIC (Candida albicans): 6.25 µg/mL

Molecule: COC(=O)[C@]1(C)CC[C@H](OC(C)=O)[C@]2(C)c3c(O)cc(C(C)C)cc3[C@H](O)[C@@H](OC(C)=O)[C@H]21 [EUROABIENOL]
- MBC (Klebsiella pneumoniae [1]): 716 µg/mL (≈ 1550 µM)
- MIC (Klebsiella pneumoniae [1]): 45 µg/mL (≈ 97.3 µM)
- MFC (Acremonium chrysogenum): > 5740 µg/mL
- MIC (Acremonium chrysogenum): > 5740 µg/mL
- MBC (Bacillus cereus): 716 µg/mL (≈ 1550 µM)
- MIC (Bacillus cereus): 89 µg/mL (≈ 192 µM)
- MBC (Escherichia coli [2]): 2870 µg/mL (≈ 6200 µM)
- MIC (Escherichia coli [2]): 179 µg/mL (≈ 387 µM)
- MBC (Pseudomonas aeruginosa): 2870 µg/mL (≈ 6200 µM)
- MIC (Pseudomonas aeruginosa): 358 µg/mL (≈ 774 µM)
- MBC (Staphylococcus aureus [3]): 716 µg/mL (≈ 1550 µM)
- MIC (Staphylococcus aureus [3]): 22 µg/mL (≈ 47.6 µM)
- MBC (Salmonella enterica): 1430 µg/mL (≈ 3100 µM)
- MIC (Salmonella enterica): 179 µg/mL (≈ 387 µM)
- MBC (Proteus vulgaris): 5740 µg/mL (≈ 12400 µM)
- MIC (Proteus vulgaris): 179 µg/mL (≈ 387 µM)
- MFC (Aspergillus restrictus): 2870 µg/mL (≈ 6200 µM)
- MIC (Aspergillus restrictus): 1430 µg/mL (≈ 3100 µM)
- MBC (Staphylococcus aureus [4]): 2870 µg/mL (≈ 6200 µM)
- MIC (Staphylococcus aureus [4]): 22 µg/mL (≈ 47.6 µM)
- MBC (Klebsiella pneumoniae [5]): 1430 µg/mL (≈ 3100 µM)
- MIC (Klebsiella pneumoniae [5]): 179 µg/mL (≈ 387 µM)
- MBC (Escherichia coli [6]): 716 µg/mL (≈ 1550 µM)
- MIC (Escherichia coli [6]): 358 µg/mL (≈ 774 µM)
- MFC (Saccharomyces cerevisiae; ATCC 9763, 48 h): 89 µg/mL (≈ 192 µM)
- MIC (Saccharomyces cerevisiae; ATCC 9763, 48 h): 89 µg/mL (≈ 192 µM)
- MBC (Staphylococcus aureus [7]): 5740 µg/mL (≈ 12400 µM)
- MIC (Staphylococcus aureus [7]): 179 µg/mL (≈ 387 µM)
- MFC (Penicillium chrysogenum): 2870 µg/mL (≈ 6200 µM)
- MIC (Penicillium chrysogenum): 1430 µg/mL (≈ 3100 µM)
- MBC (Trueperella pyogenes): 1430 µg/mL (≈ 3100 µM)
- MIC (Trueperella pyogenes): 179 µg/mL (≈ 387 µM)
- MBC (Escherichia coli [8]): 5740 µg/mL (≈ 12400 µM)
- MIC (Escherichia coli [8]): 716 µg/mL (≈ 1550 µM)
- MFC (Aspergillus fumigatus): 358 µg/mL (≈ 774 µM)
- MIC (Aspergillus fumigatus): 89 µg/mL (≈ 192 µM)
- MFC (Candida albicans; ATCC 10231, 48 h): 1430 µg/mL (≈ 3100 µM)
- MIC (Candida albicans; ATCC 10231, 48 h): 358 µg/mL (≈ 774 µM)
- MBC (Bacillus subtilis): 2870 µg/mL (≈ 6200 µM)
- MIC (Bacillus subtilis): 179 µg/mL (≈ 387 µM)
- MBC (Micrococcus luteus): 179 µg/mL (≈ 387 µM)
- MIC (Micrococcus luteus): 45 µg/mL (≈ 97.3 µM)

Molecule: CN(C)[C@@H]1C(O)=C(C(N)=O)C(=O)[C@@]2(O)C(O)=C3C(=O)c4c(O)cccc4[C@@](C)(O)[C@H]3C[C@@H]12 [TETRACYCLINE]
- MIC (Klebsiella pneumoniae [1]): 0.39 µg/mL (≈ 0.878 µM)
- MIC (Bacillus cereus): 0.195 µg/mL (≈ 0.439 µM)
- MIC (Escherichia coli [2]): 1.56 µg/mL (≈ 3.51 µM)
- MIC (Pseudomonas aeruginosa): 1.56 µg/mL (≈ 3.51 µM)
- MIC (Staphylococcus aureus [3]): 0.098 µg/mL (≈ 0.221 µM)
- MIC (Salmonella enterica): 0.195 µg/mL (≈ 0.439 µM)
- MIC (Proteus vulgaris): 0.39 µg/mL (≈ 0.878 µM)
- MIC (Staphylococcus aureus [4]): 0.098 µg/mL (≈ 0.221 µM)
- MIC (Klebsiella pneumoniae [5]): 0.39 µg/mL (≈ 0.878 µM)
- MIC (Escherichia coli [6]): 0.195 µg/mL (≈ 0.439 µM)
- MIC (Staphylococcus aureus [7]): 0.098 µg/mL (≈ 0.221 µM)
- MIC (Trueperella pyogenes): 1.56 µg/mL (≈ 3.51 µM)
- MIC (Escherichia coli [8]): 1.56 µg/mL (≈ 3.51 µM)
- MIC (Bacillus subtilis): 0.195 µg/mL (≈ 0.439 µM)
- MIC (Micrococcus luteus): 0.39 µg/mL (≈ 0.878 µM)
